US7973135B2, “Compositions and methods for targeting cancer-specific transcription complexes” (Oncotx, Inc., priority 2006, dated 2011)

Tests used:
Format in all cases: cell-based, human
WM 266-4 cells [1] = test: Apoptosis (Annexin V-Cy3 kit) of melanoma cells treated with peptides; settings: for Apoptosis, result in words (summary of Table 2): 10 μM; for Apoptosis 7 days/%: peptide 10 μM
Protocol: (§1) Human melanoma cell lines SK-MEL-28 and WM-266-4 were obtained from the American Type Culture Collection (ATCC; Manassas, Va.; SK-MEL-28 deposited by T. Takehashi and subject to release terms set by The Memorial Sloan-Kettering Cancer Center; WM-266-4 deposited by M. Herlyn). Cells were cultured according to recommendations of ATCC (DMEM, 10% FCS, penicillin+streptomycin) and used in experiments after two passages in the laboratory. Cells were grown in 24 well plates, each treatment in triplicates. Cells were plated 16 hours prior treatments started. Peptides were added to the media, and media was changed every day during 7 day experiment. CPP concentration was 10 μM.
(§2) Apoptosis was analyzed using Biovision Annexin V-Cy3 Apoptosis Kit according to manufacturer's protocols.
(§3) Effects of peptide drug candidates BAF57 P12 and TRAP100 P05 on cell proliferation and apoptosis were analyzed using human melanoma cell lines SK-MEL-28 and WM 266-4. Therapeutic peptides were added at a concentration of 10 μM directly to culture media. Internalization and translocation of the therapeutic peptide(s) into the cell nucleus was studied using fluorescein labeled peptides. […] As controls we used scrambled peptides. […] Simultaneous incubation of melanoma cells with both peptides caused complete inhibition of proliferation and induction of apoptosis in almost all treated cells.

SK-MEL-28 cells [2] = test: as above; settings: for Apoptosis, result in words (summary of Table 2) / Apoptosis 7 days/%: SK-MEL-28; for Apoptosis, result in words (summary of Table 2): 10 μM; for Apoptosis 7 days/%: peptide 10 μM; for Apoptosis of melanoma cells in vitro, result in words (library screening): screening of peptide libraries using SK-MEL-28
Protocol: as §1, §2, §3

WM 266-4 cells [3] = test: Cell proliferation (cell counting) of melanoma cells treated with peptides; settings: for Proliferation, result in words (summary of Table 2): 10 μM; for Cell Count 7 days: peptide 10 μM in media, start count 10, 7 days
Protocol: as §1
(§4) For cell counting, cells were trypsinized (0.25% Trypsin, 2 mM EDTA) in Ca+2, Mg+2 free PBS. Cells were precipitated and resuspended in 100 μl of PBS, and 5 μl were removed for counting
as §3

SK-MEL-28 cells [4] = test: as above; settings: for Proliferation, result in words (summary of Table 2) / Cell Count 7 days: SK-MEL-28; for Proliferation, result in words (summary of Table 2): 10 μM; for Cell Count 7 days: peptide 10 μM in media, start count 10; for Growth of melanoma cells in vitro, result in words (library screening): screening of peptide libraries using SK-MEL-28
Protocol: as §1, §4, §3

PKKRKVRRRRRRRNDRLSDGDSKYSQTSHKLVQLL (listed as Homo sapiens) [BAF57 P12, NLS-CPP-interfering peptide targeting chromatin modifying complex containing cancer specific isoform of BAF57]
Apoptosis, result in words (summary of Table 2) (WM 266-4 cells [1]): induce apoptosis | Apoptosis 7 days/% (WM 266-4 cells [1]): 59% | Apoptosis, result in words (summary of Table 2) (SK-MEL-28 cells [2]): induce apoptosis | Apoptosis 7 days/% (SK-MEL-28 cells [2]): 65% | Apoptosis of melanoma cells in vitro, result in words (library screening) (SK-MEL-28 cells [2]): stimulate apoptosis | Proliferation, result in words (summary of Table 2) (WM 266-4 cells [3]): suppress significantly proliferation | Cell Count 7 days (WM 266-4 cells [3]): 17 | Proliferation, result in words (summary of Table 2) (SK-MEL-28 cells [4]): suppress significantly proliferation | Cell Count 7 days (SK-MEL-28 cells [4]): 16 | Growth of melanoma cells in vitro, result in words (library screening) (SK-MEL-28 cells [4]): inhibit growth of melanoma cells

PKKRKVRRRRRRRPQMQQNVFQYPGAGMVPQGEANF (listed as Homo sapiens) [TRAP100 P05, NLS-CPP-interfering peptide targeting mediator complex containing cancer specific isoform of MED24/TRAP100]
Apoptosis, result in words (summary of Table 2) (WM 266-4 cells [1]): induce apoptosis | Apoptosis 7 days/% (WM 266-4 cells [1]): 78% | Apoptosis, result in words (summary of Table 2) (SK-MEL-28 cells [2]): induce apoptosis | Apoptosis 7 days/% (SK-MEL-28 cells [2]): 78% | Apoptosis of melanoma cells in vitro, result in words (library screening) (SK-MEL-28 cells [2]): stimulate apoptosis | Proliferation, result in words (summary of Table 2) (WM 266-4 cells [3]): suppress significantly proliferation | Cell Count 7 days (WM 266-4 cells [3]): 15 | Proliferation, result in words (summary of Table 2) (SK-MEL-28 cells [4]): suppress significantly proliferation | Cell Count 7 days (SK-MEL-28 cells [4]): 12 | Growth of melanoma cells in vitro, result in words (library screening) (SK-MEL-28 cells [4]): inhibit growth of melanoma cells
